Results reported in patent publication US9695155B2, “Herbicidal substituted pyrimidinyloxy benzene compounds” (E. I. DU PONT DE NEMOURS AND COMPANY, priority 2013, dated 2017).

Key:
wild mustard = assay: Test D postemergence; format: in vivo, Sinapis arvensis; settings: Brassica, post-emergence
Summary of the method: (§1)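 Values are 0–100 visual control ratings (0 none, 100 complete) given 7–21 days after application. Soil for preemergence was silt loam; postemergence plants stood 2–18 cm tall.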

deadnettle [1] = assay: Test D preemergence; format: in vivo, Lamium amplexicaule; settings: Lamium amplexicaule, pre-emergence
Summary of the method: as §1

deadnettle [2] = assay: Test D postemergence; format: in vivo, Lamium amplexicaule; settings: Lamium amplexicaule, post-emergence
Summary of the method: as §1

wild buckwheat = assay: Test D preemergence; format: in vivo, Polygonum convolvulus; settings: Fallopia convolvulus, pre-emergence
Summary of the method: as §1

chickweed = assay: Test D postemergence; format: in vivo, Stellaria media; settings: Stellaria media, post-emergence
Summary of the method: as §1

galium = assay: Test D postemergence; format: in vivo, Galium aparine; settings: Galium, post-emergence
Summary of the method: as §1

lambsquarters [3] = assay: Test D postemergence; format: in vivo, Chenopodium album; settings: Chenopodium album, post-emergence
Summary of the method: as §1

blackgrass = assay: Test D preemergence; format: in vivo, Alopecurus myosuroides; settings: Alopecurus myosuroides, pre-emergence
Summary of the method: as §1

speedwell = assay: Test D postemergence; format: in vivo, Veronica persica; settings: Veronica persica, post-emergence
Summary of the method: as §1

kochia = assay: Test D preemergence; format: in vivo, Kochia scoparia; settings: Bassia scoparia, pre-emergence
Summary of the method: as §1

lambsquarters [4] = assay: Test D preemergence; format: in vivo, Chenopodium album; settings: Chenopodium album, pre-emergence
Summary of the method: as §1

## FC(F)(F)c1cnn(-c2ccccc2Oc2ncc(Br)cn2)c1 [Compound 18, 5-bromo-2-[2-[4-(trifluoromethyl)-1H-pyrazol-1-yl]phenoxy]pyrimidine]
Wild mustard; 16 g ai/ha, scale 0-100, read-out: Plant response rating, Mustard, Wild
  pest or weed control at 16 g/ha: 60%
Wild mustard; 31 g ai/ha, scale 0 to 100 (0 no effect, 100 complete control), read-out: Plant response rating, Mustard, Wild
  pest or weed control at 31 g/ha: 90%
Wild mustard; 62 g ai/ha, scale 0 to 100 (0 no effect, 100 complete control), read-out: Plant response rating, Mustard, Wild
  pest or weed control at 62 g/ha: 70%
Wild mustard; 125 g ai/ha, scale 0 to 100 (0 no effect, 100 complete control), read-out: Plant response rating, Mustard, Wild
  pest or weed control at 125 g/ha: 80%
Wild mustard; 250 g ai/ha, scale 0 to 100 (0 no effect, 100 complete control), read-out: Plant response rating, Mustard, Wild
  pest or weed control at 250 g/ha: 100%
Deadnettle [1]; 16 g ai/ha, scale 0 (no effect) to 100 (complete control), read-out: Plant response rating, Deadnettle
  pest or weed control at 16 g/ha: 10%
Deadnettle [1]; 31 g ai/ha, scale 0-100, read-out: Plant response rating, Deadnettle
  pest or weed control at 31 g/ha: 5%
Deadnettle [1]; 62 g ai/ha, scale 0-100, read-out: Plant response rating, Deadnettle
  pest or weed control at 62 g/ha: 55%
Deadnettle [1]; 125 g ai/ha, scale 0-100, read-out: Plant response rating, Deadnettle
  pest or weed control at 125 g/ha: 70%
Deadnettle [1]; 250 g ai/ha, scale 0-100, read-out: Plant response rating, Deadnettle
  pest or weed control at 250 g/ha: 100%
Deadnettle [2]; 16 g ai/ha, scale 0-100, read-out: Plant response rating, Deadnettle
  pest or weed control at 16 g/ha: 50%
Deadnettle [2]; 31 g ai/ha, scale 0 to 100 (0 no effect, 100 complete control), read-out: Plant response rating, Deadnettle
  pest or weed control at 31 g/ha: 65%
Deadnettle [2]; 62 g ai/ha, scale 0 to 100 (0 no effect, 100 complete control), read-out: Plant response rating, Deadnettle
  pest or weed control at 62 g/ha: 75%
Deadnettle [2]; 125 g ai/ha, scale 0 to 100 (0 no effect, 100 complete control), read-out: Plant response rating, Deadnettle
  pest or weed control at 125 g/ha: 90%
Deadnettle [2]; 250 g ai/ha, scale 0 to 100 (0 no effect, 100 complete control), read-out: Plant response rating, Deadnettle
  pest or weed control at 250 g/ha: 100%
Wild buckwheat; 16 g ai/ha, scale 0 (no effect) to 100 (complete control), read-out: Plant response rating, Buckwheat, Wild
  pest or weed control at 16 g/ha: 10%
Wild buckwheat; 31 g ai/ha, scale 0-100, read-out: Plant response rating, Buckwheat, Wild
  pest or weed control at 31 g/ha: 70%
Wild buckwheat; 62 g ai/ha, scale 0-100, read-out: Plant response rating, Buckwheat, Wild
  pest or weed control at 62 g/ha: 80%
Wild buckwheat; 125 g ai/ha, scale 0-100, read-out: Plant response rating, Buckwheat, Wild
  pest or weed control at 125 g/ha: 100%
Wild buckwheat; 250 g ai/ha, scale 0-100, read-out: Plant response rating, Buckwheat, Wild
  pest or weed control at 250 g/ha: 100%
chickweed; 16 g ai/ha, scale 0-100, read-out: Plant response rating, Chickweed
  pest or weed control at 16 g/ha: 15%
chickweed; 31 g ai/ha, scale 0 to 100 (0 no effect, 100 complete control), read-out: Plant response rating, Chickweed
  pest or weed control at 31 g/ha: 40%
chickweed; 62 g ai/ha, scale 0 to 100 (0 no effect, 100 complete control), read-out: Plant response rating, Chickweed
  pest or weed control at 62 g/ha: 45%
chickweed; 125 g ai/ha, scale 0 to 100 (0 no effect, 100 complete control), read-out: Plant response rating, Chickweed
  pest or weed control at 125 g/ha: 60%
chickweed; 250 g ai/ha, scale 0 to 100 (0 no effect, 100 complete control), read-out: Plant response rating, Chickweed
  pest or weed control at 250 g/ha: 95%
galium; 16 g ai/ha, scale 0-100, read-out: Plant response rating, Galium
  pest or weed control at 16 g/ha: 40%
galium; 31 g ai/ha, scale 0 to 100 (0 no effect, 100 complete control), read-out: Plant response rating, Galium
  pest or weed control at 31 g/ha: 60%
galium; 62 g ai/ha, scale 0 to 100 (0 no effect, 100 complete control), read-out: Plant response rating, Galium
  pest or weed control at 62 g/ha: 70%
galium; 125 g ai/ha, scale 0 to 100 (0 no effect, 100 complete control), read-out: Plant response rating, Galium
  pest or weed control at 125 g/ha: 65%
galium; 250 g ai/ha, scale 0 to 100 (0 no effect, 100 complete control), read-out: Plant response rating, Galium
  pest or weed control at 250 g/ha: 70%
Lambsquarters [3]; 16 g ai/ha, scale 0-100, read-out: Plant response rating, Lambsquarters
  pest or weed control at 16 g/ha: 15%
Lambsquarters [3]; 31 g ai/ha, scale 0 to 100 (0 no effect, 100 complete control), read-out: Plant response rating, Lambsquarters
  pest or weed control at 31 g/ha: 50%
Lambsquarters [3]; 62 g ai/ha, scale 0 to 100 (0 no effect, 100 complete control), read-out: Plant response rating, Lambsquarters
  pest or weed control at 62 g/ha: 90%
Lambsquarters [3]; 125 g ai/ha, scale 0 to 100 (0 no effect, 100 complete control), read-out: Plant response rating, Lambsquarters
  pest or weed control at 125 g/ha: 95%
Lambsquarters [3]; 250 g ai/ha, scale 0 to 100 (0 no effect, 100 complete control), read-out: Plant response rating, Lambsquarters
  pest or weed control at 250 g/ha: 95%
blackgrass; 16 g ai/ha, scale 0 (no effect) to 100 (complete control), read-out: Plant response rating, Blackgrass
  pest or weed control at 16 g/ha: 0%
blackgrass; 31 g ai/ha, scale 0-100, read-out: Plant response rating, Blackgrass
  pest or weed control at 31 g/ha: 5%
blackgrass; 62 g ai/ha, scale 0-100, read-out: Plant response rating, Blackgrass
  pest or weed control at 62 g/ha: 50%
blackgrass; 125 g ai/ha, scale 0-100, read-out: Plant response rating, Blackgrass
  pest or weed control at 125 g/ha: 100%
blackgrass; 250 g ai/ha, scale 0-100, read-out: Plant response rating, Blackgrass
  pest or weed control at 250 g/ha: 100%
speedwell; 16 g ai/ha, scale 0-100, read-out: Plant response rating, Speedwell
  pest or weed control at 16 g/ha: 100%
speedwell; 31 g ai/ha, scale 0 to 100 (0 no effect, 100 complete control), read-out: Plant response rating, Speedwell
  pest or weed control at 31 g/ha: 100%
speedwell; 62 g ai/ha, scale 0 to 100 (0 no effect, 100 complete control), read-out: Plant response rating, Speedwell
  pest or weed control at 62 g/ha: 100%
speedwell; 125 g ai/ha, scale 0 to 100 (0 no effect, 100 complete control), read-out: Plant response rating, Speedwell
  pest or weed control at 125 g/ha: 100%
speedwell; 250 g ai/ha, scale 0 to 100 (0 no effect, 100 complete control), read-out: Plant response rating, Speedwell
  pest or weed control at 250 g/ha: 100%
kochia; 16 g ai/ha, scale 0 (no effect) to 100 (complete control), read-out: Plant response rating, Kochia
  pest or weed control at 16 g/ha: 15%
kochia; 31 g ai/ha, scale 0-100, read-out: Plant response rating, Kochia
  pest or weed control at 31 g/ha: 90%
kochia; 62 g ai/ha, scale 0-100, read-out: Plant response rating, Kochia
  pest or weed control at 62 g/ha: 75%
kochia; 125 g ai/ha, scale 0-100, read-out: Plant response rating, Kochia
  pest or weed control at 125 g/ha: 100%
kochia; 250 g ai/ha, scale 0-100, read-out: Plant response rating, Kochia
  pest or weed control at 250 g/ha: 100%
Lambsquarters [4]; 16 g ai/ha, scale 0 (no effect) to 100 (complete control), read-out: Plant response rating, Lambsquarters
  pest or weed control at 16 g/ha: 70%
Lambsquarters [4]; 31 g ai/ha, scale 0-100, read-out: Plant response rating, Lambsquarters
  pest or weed control at 31 g/ha: 80%
Lambsquarters [4]; 62 g ai/ha, scale 0-100, read-out: Plant response rating, Lambsquarters
  pest or weed control at 62 g/ha: 100%
Lambsquarters [4]; 125 g ai/ha, scale 0-100, read-out: Plant response rating, Lambsquarters
  pest or weed control at 125 g/ha: 100%
Lambsquarters [4]; 250 g ai/ha, scale 0-100, read-out: Plant response rating, Lambsquarters
  pest or weed control at 250 g/ha: 100%
